According to ChEMBL document CHEMBL5120905, “Examining the Role of the Linker in Bitopic N6-Substituted Adenosine Derivatives Acting as Biased Adenosine A1 Receptor Agonists” (J Med Chem, 2022):

Tests used:
Format in all cases: functional, cell-based
Adenosine receptor A2a = Adenosine receptor A2a (Homo sapiens, UniProt P29274); assay: Agonist activity at human A2A receptor expressed in Flp-In-CHO cells assessed as cAMP accumulation incubated for 30 mins by LANCE cAMP assay
Adenosine receptor A1 [1] = target: T1, Adenosine receptor A1 (Homo sapiens, UniProt P30542); assay: Agonist activity at human A1 receptor expressed in Flp-In-CHO cells assessed as inhibition of forskolin stimulated cAMP accumulation incubated for 30 mins by LANCE cAMP assay
T1 sequence (P30542 whole entry): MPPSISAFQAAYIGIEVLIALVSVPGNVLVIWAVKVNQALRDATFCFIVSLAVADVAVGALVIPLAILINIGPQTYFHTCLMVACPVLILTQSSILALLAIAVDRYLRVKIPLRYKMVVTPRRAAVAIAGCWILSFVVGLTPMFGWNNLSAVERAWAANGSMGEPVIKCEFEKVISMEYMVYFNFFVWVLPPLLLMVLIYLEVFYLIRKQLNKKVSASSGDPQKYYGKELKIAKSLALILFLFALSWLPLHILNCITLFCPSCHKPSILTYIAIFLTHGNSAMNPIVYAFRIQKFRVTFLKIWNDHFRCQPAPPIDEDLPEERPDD

Adenosine receptor A1 [2] = target: T1, Adenosine receptor A1; assay: Agonist activity at human A1 receptor expressed in Flp-In-CHO cells assessed as stimulation of calcium mobilization by calcium mobilization assay
Adenosine receptor A2b = target: T2, Adenosine receptor A2b (Homo sapiens, UniProt P29275); assay: Agonist activity at human A2B receptor expressed in Flp-In-CHO cells assessed as cAMP accumulation incubated for 10 mins in presence of forskolin by LANCE cAMP assay
T2 sequence (P29275 whole entry): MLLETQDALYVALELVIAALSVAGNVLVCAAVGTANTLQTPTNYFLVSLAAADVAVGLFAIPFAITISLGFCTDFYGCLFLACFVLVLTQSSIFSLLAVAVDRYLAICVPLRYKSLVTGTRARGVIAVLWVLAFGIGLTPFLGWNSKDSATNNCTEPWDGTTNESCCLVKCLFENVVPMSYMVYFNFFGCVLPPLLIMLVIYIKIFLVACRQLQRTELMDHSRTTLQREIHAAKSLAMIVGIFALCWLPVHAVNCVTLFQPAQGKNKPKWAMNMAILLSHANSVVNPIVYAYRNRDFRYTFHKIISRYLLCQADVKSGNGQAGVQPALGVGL

Adenosine receptor A2a, sequence (P29274 whole entry): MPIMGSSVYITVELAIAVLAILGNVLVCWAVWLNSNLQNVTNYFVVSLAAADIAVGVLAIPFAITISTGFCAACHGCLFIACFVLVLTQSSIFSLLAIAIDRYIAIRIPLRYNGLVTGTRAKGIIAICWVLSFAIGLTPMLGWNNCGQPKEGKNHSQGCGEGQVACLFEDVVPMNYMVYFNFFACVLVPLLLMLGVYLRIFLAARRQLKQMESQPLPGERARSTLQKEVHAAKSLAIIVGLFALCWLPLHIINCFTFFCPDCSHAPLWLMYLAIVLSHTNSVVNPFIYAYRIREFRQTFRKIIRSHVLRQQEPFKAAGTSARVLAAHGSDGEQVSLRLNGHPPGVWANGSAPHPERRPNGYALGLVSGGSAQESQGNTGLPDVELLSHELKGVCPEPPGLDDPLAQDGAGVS

SMILES	EC50 (Adenosine receptor A2a) [nM]	EC50 (Adenosine receptor A1 [1]) [nM]	EC50 (Adenosine receptor A1 [2]) [nM]	EC50 (Adenosine receptor A2b) [nM]
Nc1sc(-c2ccc(C(=O)NCCCCCCNc3ncnc4c3ncn4[C@@H]3O[C@H](CO)[C@@H](O)[C@H]3O)cc2)c(-c2cccc(C(F)(F)F)c2)c1C(=O)c1ccccc1	389			
Nc1sc(-c2ccc(C(=O)NCCc3ccc(CCNc4ncnc5c4ncn5[C@@H]4O[C@H](CO)[C@@H](O)[C@H]4O)cc3)cc2)c(-c2cccc(C(F)(F)F)c2)c1C(=O)c1ccccc1	363	550	> 10000	52.5
Nc1sc(-c2ccc(C(=O)NCCC#Cc3ccc(Nc4ncnc5c4ncn5[C@@H]4O[C@H](CO)[C@@H](O)[C@H]4O)cc3)cc2)c(-c2cccc(C(F)(F)F)c2)c1C(=O)c1ccccc1	741			
